# Data from PubChem BioAssay AID1259411 (Chemical Carcinogenesis Research Information System (CCRIS), 2018).
# Active and inactive are the calls of the source. The rule behind the calls is not given here.
# System: rodent carcinogenicity bioassays, tumor incidence
# Assay: CCRIS carcinogenicity studies
# Method in brief: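 Archive of carcinogenicity, mutagenicity, tumor promotion and tumor inhibition results drawn from journals, NCI reports and other sources, expert-reviewed; covers 1985-2011 and is no longer updated.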
compound,measurement,setting,value
FC(Cl)(Cl)Cl,carcinogen call,"Species: MOUSE, Strain/Sex: B6C3F1/FEMALE, Route: GAVAGE, Dose: 0, 1962, 3925 MG/KG, TWA, Dose: 0, 1962, 3925 MG/KG, TWA",inactive; negative
same,carcinogen call,"Species: MOUSE, Strain/Sex: B6C3F1/MALE, Route: GAVAGE, Dose: 0, 1962, 3925 MG/KG, TWA, Dose: 0, 1962, 3925 MG/KG, TWA",inactive; negative
same,carcinogen call,"Species: MOUSE, Strain/Sex: SWISS/FEMALE, Route: INHALATION, Dose: 0, 1000, 5000 PPM 4 HR/D 5 D/WK FOR 78 WK (STUDY DURATION: LIFETIME), Dose: 0, 1000, 5000 PPM 4 HR/D 5 D/WK FOR 78 WK (STUDY DURATION: LIFETIME)",inactive; negative
same,carcinogen call,"Species: MOUSE, Strain/Sex: SWISS/MALE, Route: INHALATION, Dose: 0, 1000, 5000 PPM 4 HR/D 5 D/WK FOR 78 WK (STUDY DURATION: LIFETIME), Dose: 0, 1000, 5000 PPM 4 HR/D 5 D/WK FOR 78 WK (STUDY DURATION: LIFETIME)",inactive; negative
same,carcinogen call,"Species: RAT, Strain/Sex: SPRAGUE-DAWLEY/FEMALE, Route: INHALATION, Dose: 0, 1000, 5000 PPM 4 HR/D 5 D/WK FOR 104 WK (STUDY DURATION: LIFETIME), Dose: 0, 1000, 5000 PPM 4 HR/D 5 D/WK FOR 104 WK (STUDY DURATION: LIFETIME)",inactive; negative
same,carcinogen call,"Species: RAT, Strain/Sex: SPRAGUE-DAWLEY/FEMALE, Route: INHALATION, Dose: 0, 1000, 5000 PPM IN AIR 4 HR/D 5 D/WK FOR 104 WK (STUDY DURATION: LIFETIME), Dose: 0, 1000, 5000 PPM IN AIR 4 HR/D 5 D/WK FOR 104 WK (STUDY DURATION: LIFETIME), Tumor Site: Type of Lesion: [BRAIN WAS ONLY SITE EVALUATED]",inactive; negative
same,carcinogen call,"Species: RAT, Strain/Sex: SPRAGUE-DAWLEY/MALE, Route: INHALATION, Dose: 0, 1000, 5000 PPM 4 HR/D 5 D/WK FOR 104 WK (STUDY DURATION: LIFETIME), Dose: 0, 1000, 5000 PPM 4 HR/D 5 D/WK FOR 104 WK (STUDY DURATION: LIFETIME)",inactive; negative
same,carcinogen call,"Species: RAT, Strain/Sex: SPRAGUE-DAWLEY/MALE, Route: INHALATION, Dose: 0, 1000, 5000 PPM IN AIR 4 HR/D 5 D/WK FOR 104 WK (STUDY DURATION: LIFETIME), Dose: 0, 1000, 5000 PPM IN AIR 4 HR/D 5 D/WK FOR 104 WK (STUDY DURATION: LIFETIME), Tumor Site: Type of Lesion: [BRAIN WAS ONLY SITE EVALUATED]",inactive; negative
CCOP(=O)=O.CCOP(=O)=O.CCOP(=O)=O.[Al+3],carcinogen call,"Species: Mouse, Strain/Sex: CD-1/Female (60/Group), Route: Oral",inactive; negative
same,carcinogen call,"Species: Mouse, Strain/Sex: CD-1/Male (60/Group), Route: Oral",inactive; negative
same,carcinogen call,"Species: Rat, Strain/Sex: CD Sprague-Dawley/Male (80/Group), Route: Oral, Dose: 0, 88, 348, 1372 mg/kg/day in diet for 24 mo, study duration 24 mo, Dose: 0, 88, 348, 1372 mg/kg/day in diet for 24 mo, study duration 24 mo, Tumor Site: Type of Lesion: Adrenal medulla: pheochromocytoma (5/80, 7/79. 15/81, 16/81). Urinary bladder: Carcinoma and papilloma combined (1/78 in",active; positive. (department of pesticides regulation reviewer described as a possible
same,carcinogen call,"Species: Rat, Strain/Sex: CD Sprague-Dawley/Male (80/Group), Route: Oral, Dose: 0, 117, 450, 1786 mg/kg/day in diet for 24 mo, study duration 24 mo, Dose: 0, 117, 450, 1786 mg/kg/day in diet for 24 mo, study duration 24 mo",inactive; negative
C#C[C@]1(O)CC[C@H]2[C@@H]3CCc4cc(OC)ccc4[C@H]3CC[C@@]21C,carcinogen call,"Species: MOUSE, Route: ORAL, Tumor Site: Type of Lesion: MAMMARY GLAND, PITUITARY GLAND",active; positive
same,carcinogen call,"Species: RAT, Route: ORAL, Tumor Site: Type of Lesion: MAMMARY GLAND",active; positive
O=[N+]([O-])c1ccc2c3c(cccc13)-c1ccccc1-2,carcinogen call,"Species: MOUSE, Strain/Sex: B6C3F1/MALE, Route: INTRAPERITONEAL, Dose: 0, 400 NMOL IN 35 µL DMSO ON DAYS 1 (1/7 TOTAL DOSE), 8 (2/7 TOTAL DOSE), AND 15 (4/7 TOTAL DOSE) AFTER BIRTH (STUDY DUR",inactive; negative
same,carcinogen call,"Species: MOUSE, Strain/Sex: ICR/FEMALE, Route: INTRAPERITONEAL, Dose: 0, 63 UG TOTAL DOSE (9 UG/5 µL, 18 UG/10 µL, 36 UG/20 µL DMSO ON DAYS 1, 8 AND 15), 315 UG TOTAL DOSE (45 UG/5 µL, 90 UG, Dose: 0, 63 UG TOTAL DOSE (9 UG/5 µL, 18 UG/10 µL, 36 UG/20 µL DMSO ON DAYS 1, 8 AND 15), 315 UG TOTAL DOSE (45 UG/5 µL, 90 UG, Tumor Site: Type of Lesion: LUNG: ADENOMA",active; positive
same,carcinogen call,"Species: MOUSE, Strain/Sex: ICR/MALE, Route: INTRAPERITONEAL, Dose: 0, 63 UG TOTAL DOSE (9 UG/5 µL, 18 UG/10 µL, 36 UG/20 µL DMSO ON DAYS 1, 8 AND 15), 315 UG TOTAL DOSE (45 UG/5 µL, 90 UG, Dose: 0, 63 UG TOTAL DOSE (9 UG/5 µL, 18 UG/10 µL, 36 UG/20 µL DMSO ON DAYS 1, 8 AND 15), 315 UG TOTAL DOSE (45 UG/5 µL, 90 UG, Tumor Site: Type of Lesion: LUNG: ADENOMA",active; positive
same,carcinogen call,"Species: RAT, Strain/Sex: F344/DUCRJ FISCHER/MALE, Route: SUBCUTANEOUS, Dose: 2 MG TWICE WEEKLY FOR A TOTAL OF 15 INJECTIONS (STUDY DURATION: 52 WK), Tumor Site: Type of Lesion: INTEGUMENTARY SYSTEM: FIBROUS HISTIOCYTOMAS",active; positive
same,carcinogen call,"Species: RAT, Strain/Sex: F344/MALE, Route: LUNG IMPLANT, Dose: 0, 1000 UG SUSPENDED IN BEESWAX/TRICAPRYLIN INTO LOWER LEFT LUNG ONCE (STUDY DURATION: 100 WK)",inactive; negative
same,carcinogen call,"Species: RAT, Strain/Sex: F344/MALE, Route: PULMONARY IMPLANT, Dose: 0, 1000 UG IN 50 µL BEESWAX/TRICAPRYLIN IMPLANTED FOR UP TO 100 WK (STUDY DURATION: 100 WK)",inactive; negative
O=c1[nH]cc(F)c(=O)[nH]1,carcinogen call,"Species: MOUSE, Strain/Sex: B6C3F1/FEMALE, Route: ORAL, Dose: 0, 30, 60 PPM IN DRINKING WATER FOR 82 WK (STUDY DURATION: 86 WK), Dose: 0, 30, 60 PPM IN DRINKING WATER FOR 82 WK (STUDY DURATION: 86 WK)",inactive; negative
same,carcinogen call,"Species: MOUSE, Strain/Sex: B6C3F1/MALE, Route: ORAL, Dose: 0, 30, 60 PPM IN DRINKING WATER FOR 82 WK (STUDY DURATION: 86 WK), Dose: 0, 30, 60 PPM IN DRINKING WATER FOR 82 WK (STUDY DURATION: 86 WK)",inactive; negative
same,carcinogen call,"Species: MOUSE, Strain/Sex: BALB/FEMALE, Route: INTRAPERITONEAL, Dose: 0, 30 MG/KG IN STERILE SALINE 1/WK FOR 50 WK (STUDY DURATION: 105 WK), Tumor Site: Type of Lesion: LUNG: TUMOR, LYMPHORETICULAR SYSTEM: LYMPHOMA OR LEUKEMIA",active; positive
same,carcinogen call,"Species: MOUSE, Strain/Sex: BALB/MALE, Route: INTRAPERITONEAL, Dose: 0, 30 MG/KG IN STERILE SALINE 1/WK FOR 50 WK (STUDY DURATION: 105 WK), Tumor Site: Type of Lesion: LUNG: TUMOR",active; positive
same,carcinogen call,"Species: RAT, Strain/Sex: F344/FEMALE, Route: ORAL, Dose: 0, 62, 125 PPM IN DRINKING WATER FOR 111 WK (STUDY DURATION: 111 WK), Dose: 0, 62, 125 PPM IN DRINKING WATER FOR 111 WK (STUDY DURATION: 111 WK)",inactive; negative
same,carcinogen call,"Species: RAT, Strain/Sex: F344/MALE, Route: ORAL, Dose: 0, 62, 125 PPM IN DRINKING WATER FOR 111 WK (STUDY DURATION: 111 WK), Dose: 0, 62, 125 PPM IN DRINKING WATER FOR 111 WK (STUDY DURATION: 111 WK)",inactive; negative
C=CCN(CC=C)N=O,carcinogen call,"Species: RAT, Strain/Sex: BDIX/FEMALE, Route: ORAL, Dose: 0, 20, 40, 80 MG/KG IN DRINKING WATER FOR DURATION OF STUDY (STUDY DURATION: LIFE TIME), Dose: 0, 20, 40, 80 MG/KG IN DRINKING WATER FOR DURATION OF STUDY (STUDY DURATION: LIFE TIME), Tumor Site: Type of Lesion: NASAL/PARANASAL CAVITY: TUMORS",active; positive
same,carcinogen call,"Species: RAT, Strain/Sex: BDIX/MALE, Route: ORAL, Dose: 0, 20, 40, 80 MG/KG IN DRINKING WATER FOR DURATION OF STUDY (STUDY DURATION: LIFE TIME), Dose: 0, 20, 40, 80 MG/KG IN DRINKING WATER FOR DURATION OF STUDY (STUDY DURATION: LIFE TIME), Tumor Site: Type of Lesion: NASAL/PARANASAL CAVITY: TUMORS",active; positive
